Here are results for twelve compounds from PubChem BioAssay (NCI).

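Protocol summary: plate cells (96-well), add compound at 5 concentrations, incubate 48 h, interpolate endpoints linearly. Definition used: TGI = concentration required for complete inhibition of growth.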 Bounds are passed on as bounds.

Some test systems named below: CAKI-1 renal; LOX IMVI melanoma; TK-10 renal; UACC-62 melanoma; SN12C renal; COLO 205 colon; HS 578T breast; HOP-62 NSCLC; NCI-H522 lung; OVCAR-5 ovarian.
Assay in all cases: NCI tumour cell line growth inhibition, 48 h

Consider `Cc1c(-c2c(C)c3ccccc3n2S(=O)(=O)c2ccccc2)n(S(=O)(=O)c2ccccc2)c2ccccc12`, for which the TGI with CAKI-1 renal, with LOX IMVI melanoma, with TK-10 renal, in the test on UACC-62 melanoma, with SN12C renal and in the test with COLO 205 colon was more than 100 µM throughout. Besides, the TGI in the test with HS 578T breast is more than 100 µM; in the test with HOP-62 NSCLC, more than 87.3 µM; in the test on NCI-H522 lung, more than 100 µM; with OVCAR-5 ovarian, more than 100 µM.
Consider `CC(=O)O/C=C\OC1CCCC1(c1ccccc1)c1ccccc1` (stereo not given), for which the TGI in the test on CAKI-1 renal is 14.3 µM; in the test with LOX IMVI melanoma, 3.14 µM; with TK-10 renal it was 9.33 µM; with UACC-62 melanoma, 17.5 µM; in the test with SN12C renal, 10.3 µM; with COLO 205 colon, 13.8 µM. For the same compound, the TGI in the test with HS 578T breast is 9.8 µM; with HOP-62 NSCLC it was 25.4 µM; with NCI-H522 lung it was 23.3 µM; in the test with OVCAR-5 ovarian it was 15.3 µM.
For the compound `COc1cc2c(cc1C[N+](C)(C)CSc1ccccc1)-c1ccccc1CC2`, the TGI in the test with CAKI-1 renal is 26.4 µM; in the test on LOX IMVI melanoma, 14.6 µM; in the test with TK-10 renal, 23.1 µM; in the test with UACC-62 melanoma, 7.79 µM; in the test with SN12C renal, 19.2 µM; with COLO 205 colon it was 5.73 µM. The TGI in the test with HS 578T breast was found to be 19.3 µM; in the test on HOP-62 NSCLC it was 27.1 µM; with NCI-H522 lung, 10.7 µM; with OVCAR-5 ovarian, 24.3 µM.
Take `c1ccc(CNc2c3c(nc4ccccc24)CCC3)cc1`: the TGI in the test on CAKI-1 renal was determined as 45.3 µM; in the test on LOX IMVI melanoma it was 28.4 µM; in the test with TK-10 renal, 33.6 µM; in the test on UACC-62 melanoma, 28 µM; in the test with SN12C renal, 34.9 µM; in the test on COLO 205 colon it was 25 µM. The TGI stood at 65.5 µM in the test on HS 578T breast, 25.6 µM in the test on HOP-62 NSCLC, 39.3 µM in the test on NCI-H522 lung and 51.4 µM with OVCAR-5 ovarian.
With `COC1C(O)CC(OC2C(C)OC(Oc3cc(O)c4c(O)c5c(cc4c3)C[C@@H]([C@H](OC)C(=O)[C@@H](O)[C@@H](C)O)[C@H](OC3CC(OC4CC(OC6CC(C)(O)C(O)C(C)O6)C(O)C(C)O4)C(O)C(C)O3)C5=O)CC2OC(C)=O)OC1C` (stereo not given in full), the TGI in the test with CAKI-1 renal, in the test with LOX IMVI melanoma, in the test on TK-10 renal, with UACC-62 melanoma, in the test on SN12C renal and with COLO 205 colon was more than 100 µM each time. The TGI in the test on HS 578T breast, with HOP-62 NSCLC, in the test on NCI-H522 lung and in the test on OVCAR-5 ovarian was more than 100 µM in each case.
For the compound `O=C(NCCN(CCNC(=O)c1cccc(=O)n1O)CCN(CCNC(=O)c1cccc(=O)n1O)CCNC(=O)c1cccc(=O)n1O)c1cccc(=O)n1O`, the TGI in the test on CAKI-1 renal, in the test on LOX IMVI melanoma, in the test with TK-10 renal, with UACC-62 melanoma, with SN12C renal and with COLO 205 colon was more than 100 µM each time. The TGI in the test on HS 578T breast, in the test on HOP-62 NSCLC, in the test on NCI-H522 lung and in the test on OVCAR-5 ovarian was more than 100 µM in each case.
Consider `COc1ccc2c(c1)O[C@@H]1C(O)Oc3cc(OC)c(OC)cc3[C@]1(O)C2=O` (stereo not given in full), for which the TGI with CAKI-1 renal, in the test on LOX IMVI melanoma, in the test with TK-10 renal, in the test with UACC-62 melanoma, in the test with SN12C renal and in the test on COLO 205 colon was more than 100 µM each time. The TGI was more than 100 µM in the test with HS 578T breast, more than 100 µM in the test with HOP-62 NSCLC, 36.5 µM in the test on NCI-H522 lung and more than 100 µM in the test on OVCAR-5 ovarian.
With `COC(=O)Cc1ccc2c(c1)Sc1ccc(CC(=O)OC)cc1N2C`, the TGI with CAKI-1 renal is 52 µM; in the test on LOX IMVI melanoma, more than 57.1 µM; in the test on TK-10 renal, more than 100 µM; in the test with UACC-62 melanoma it was more than 100 µM; in the test with SN12C renal it was more than 100 µM; in the test on COLO 205 colon, 53.8 µM. The TGI in the test with HS 578T breast was more than 89.3 µM; with HOP-62 NSCLC it was more than 100 µM; with NCI-H522 lung it was 58.1 µM; in the test with OVCAR-5 ovarian, more than 100 µM.
On to `COc1ccc2nc3cc(Cl)ccc3c(NCCCCCC(=O)NC(COc3cnc4c(ccc5cccnc54)c3)COc3cnc4c(ccc5cccnc54)c3)c2c1`, for which the TGI with CAKI-1 renal is more than 100 µM; in the test with LOX IMVI melanoma it was 86.4 µM; in the test on TK-10 renal it was 91.6 µM; in the test with UACC-62 melanoma, more than 100 µM; in the test on SN12C renal, more than 100 µM; in the test on COLO 205 colon, 10.7 µM. In addition, the TGI with HS 578T breast is more than 100 µM; in the test with HOP-62 NSCLC it was 35.8 µM; in the test with NCI-H522 lung, more than 100 µM; in the test on OVCAR-5 ovarian, more than 100 µM.
In the case of `CN1CC2=C(OC(N)=C(C#N)C2c2cccs2)/C(=C/c2cccs2)C1` (stereo not given), the TGI is more than 100 µM in the test on CAKI-1 renal; more than 63.3 µM in the test on LOX IMVI melanoma; more than 100 µM with TK-10 renal; more than 100 µM with UACC-62 melanoma; more than 100 µM with SN12C renal; more than 100 µM in the test with COLO 205 colon. In addition, the TGI in the test with HS 578T breast was more than 100 µM; in the test with HOP-62 NSCLC, 51.9 µM; in the test with NCI-H522 lung, more than 53 µM; in the test on OVCAR-5 ovarian it was more than 100 µM.
With `Cn1ccnc1Sc1ccc(/C=N/NC(=O)c2ccccc2O)cc1[N+](=O)[O-]`, the TGI in the test on CAKI-1 renal is more than 100 µM; with LOX IMVI melanoma, more than 100 µM; in the test with TK-10 renal, more than 100 µM; with UACC-62 melanoma, more than 100 µM; in the test on SN12C renal it was more than 100 µM; in the test with COLO 205 colon it was 56.8 µM. The TGI in the test with HS 578T breast, in the test on HOP-62 NSCLC, in the test with NCI-H522 lung and with OVCAR-5 ovarian was more than 100 µM throughout.
On to `COc1ccc2c(c1)OC(c1cccnc1)C(c1ccccc1)C2=O` (stereo not given), for which the TGI in the test with CAKI-1 renal, in the test with LOX IMVI melanoma, in the test with TK-10 renal, in the test with UACC-62 melanoma, in the test with SN12C renal and with COLO 205 colon was more than 100 µM each time. Also, the TGI with HS 578T breast, in the test on HOP-62 NSCLC, with NCI-H522 lung and with OVCAR-5 ovarian was more than 100 µM each time.
